In patent US10696639B2, “Heterocyclic compounds as HIV protease inhibitors” (Merck Sharp & Dohme Corp., priority 2016, dated 2020) one finds IC50 data, which are given here for 24 compounds.

The target in this assay is T1, wild-type HIV-1 protease (Human immunodeficiency virus type 1 group M subtype B, UniProt P04585).
T1 construct: Escherichia coli expressed wild-type HIV-1 protease protein; made in house; host or cells: Escherichia coli
As to the kind of experiment: Assay for Inhibition of Microbial Expressed HIV Protease. It counts as biochemical. As to conditions: E. coli expressed wild-type HIV-1 protease, peptide substrate cleavage, LC-MS readout; mean of at least two independent experiments; read-out: HIV Pr Enzyme HIV1 PR IC50. The method, then:
Assay for Inhibition of Microbial Expressed HIV Protease
Inhibition of Escherichia coli expressed wild-type HIV-1 protease protein was carried out with a peptide substrate [Val-Ser-Gln-Asn-(βnaphtyl)Ala-Pro-Ile-Val]. The inhibitor compound was preincubated with HIV-1 protease enzyme in assay buffer (50 mM sodium acetate, pH 5.5, 100 mM NaCl, and 0.1% BSA) for 30 minutes at room temperature. Peptide substrate was added to […] in a total volume of 20 μL containing 20 pM HIV-1 protease (final) after which the reaction was incubated for 1 hour at 30° C. The reaction was quenched by the addition of formic acid and HIV protease inhibitor indinavir to 0.012% and 150 nM final concentrations, respectively. Product formation was determined after separation of product and substrate on a ZORBAX Eclipse XDB-C18 column (Aligent Technologies, Santa Clara, Calif., USA) connected to an API 4000™ mass spectrometer (AB Sciex, Pte. Ltd., Concord Ontario, Canada) with multiple reaction monitoring (transitions were 644.5/428.9 and 615.4/422.2 (M1/M3) for product and indinavir respectively). The extent of inhibition of the reaction was determined from the peak area of the products. Analysis of the products, independently synthesized, provided quantitation standards and confirmation of the product composition.
For the compound `COC(=O)N[C@@H](Cc1ccccc1)C(=O)NC(CCCN1C(=N)N[C@](CC(C)C)(c2ccccc2)C1=O)CC1CC1` (stereo partly drawn) [Example 29, N-{1-(cyclopropylmethyl)-4-[(4R)-2-imino-4-(2-methylpropyl)-5-oxo-4-phenylimidazolidin-1-yl]butyl}-N-alpha-(methoxycarbonyl)-L-phenylalaninamide], the half-maximal inhibitory concentration (IC50) – broadly, the concentration needed to halve the response being measured – is 33 nM.

In the case of `COC(=O)N[C@@H](Cc1ccc(F)cc1)C(=O)NCCCCN1C(=N)NC(c2ccccc2)(c2ccccc2)C1=O` [Example 25, 4-fluoro-N-[4-(2-imino-5-oxo-4,4-diphenylimidazolidin-1-yl)butyl]-N-alpha-(methoxycarbonyl)-L-phenylalaninamide], the concentration for half-maximal inhibition (IC50) was 17 nM.

As for `COC(=O)N[C@@H](Cc1ccncc1)C(=O)NCCCCN1C(=N)NC(c2ccccc2)(c2ccccc2)C1=O` [Example 13, methyl [(1S)-2-{[4-(2-imino-5-oxo-4,4-diphenylimidazolidin-1-yl)butyl]amino}-2-oxo-1-(pyridin-4-ylmethyl)ethyl]carbamate], the IC50 was found to be 7 nM.

Take `COC(=O)N[C@@H](Cc1cccnc1)C(=O)NCCCCN1C(=N)NC(c2ccccc2)(c2ccccc2)C1=O` [Example 8, methyl [(1S)-2-{[4-(2-imino-5-oxo-4,4-diphenylimidazolidin-1-yl)butyl]amino}-2-oxo-1-(pyridin-3-ylmethyl)ethyl]carbamate]: the IC50 was 12 nM.

As to `CC[C@@H](CCCN1C(=N)N[C@](CC(C)C)(c2ccccc2)C1=O)NC(=O)[C@H](Cc1ccc(Cl)cc1)NC(=O)OC` [Example 48, 4-chloro-N-{(1S)-1-ethyl-4-[(4R)-2-imino-4-(2-methylpropyl)-5-oxo-4-phenylimidazolidin-1-yl]butyl}-N-alpha-(methoxycarbonyl)-L-phenylalaninamide], the IC50 is 14 nM.

In the case of `COC(=O)N[C@@H](Cc1cccc(Cl)c1)C(=O)N[C@@H](C)CCCN1C(=N)N[C@](CC(C)C)(c2ccccc2)C1=O` [Example 35, 3-chloro-N-{(1S)-4-[(4R)-2-imino-4-(2-methylpropyl)-5-oxo-4-phenylimidazolidin-1-yl]-1-methylbutyl}-N-alpha-(methoxycarbonyl)-L-phenylalaninamide], the half-inhibitory concentration (IC50) was 20 nM.

Take `COC(=O)N[C@@H](Cc1ccccc1)C(=O)NCCC[C@@H](C)N1C(=N)N[C@](CC(C)C)(c2ccccc2)C1=O` [Example 54, N-{(4R)-4-[(4R)-2-imino-4-(2-methylpropyl)-5-oxo-4-phenylimidazolidin-1-yl]pentyl}-N-alpha-(methoxycarbonyl)-L-phenylalaninamide]: the IC50 came out at 190 nM.

For the compound `COC(=O)N[C@@H](Cc1ccccc1)C(=O)N[C@@H](C)CCCN1C(=N)N[C@](CC(C)C)(c2ccccc2)C1=O` [Example 28, N-{(1S)-4-[(4R)-2-imino-4-(2-methylpropyl)-5-oxo-4-phenylimidazolidin-1-yl]-1-methylbutyl}-N-alpha-(methoxycarbonyl)-L-phenylalaninamide], the IC50 is 9 nM.

As to `CC[C@@H](CCCN1C(=N)N[C@](CC(C)C)(c2ccccc2)C1=O)NC(=O)[C@H](Cc1cccc(Cl)c1)NC(=O)OC` [Example 49, 3-chloro-N-{(1S)-1-ethyl-4-[(4R)-2-imino-4-(2-methylpropyl)-5-oxo-4-phenylimidazolidin-1-yl]butyl}-N-alpha-(methoxycarbonyl)-L-phenylalaninamide], the IC50 was 15 nM.

For `COC(=O)N[C@@H](Cc1ccccc1)C(=O)NCCC[C@@H](C1CC1)N1C(=N)N[C@](CC(C)C)(c2ccccc2)C1=O` [Example 52, N-{(4S)-4-cyclopropyl-4-[(4R)-2-imino-4-(2-methylpropyl)-5-oxo-4-phenylimidazolidin-1-yl]butyl}-N-alpha-(methoxycarbonyl)-L-phenylalaninamide], the 50% inhibitory concentration (IC50) was 605 nM.

Take `CC[C@H](CCCNC(=O)[C@H](Cc1ccccc1)NC(=O)OC)N1C(=N)N[C@](CC(C)C)(c2ccccc2)C1=O` [Example 55, N-{(4R)-4-[(4R)-2-imino-4-(2-methylpropyl)-5-oxo-4-phenylimidazolidin-1-yl]hexyl}-N-alpha-(methoxycarbonyl)-L-phenylalaninamide]: the IC50 is 532 nM.

Consider `CCOC(=O)N[C@@H](Cc1ccccc1)C(=O)NCCCCN1C(=N)NC(c2ccccc2)(c2ccccc2)C1=O` [Example 6, N-alpha-(ethoxycarbonyl)-N-[4-(2-imino-5-oxo-4,4-diphenylimidazolidin-1-yl)butyl]-L-phenylalaninamide], for which the IC50 is 4 nM.

Consider `CC(C)CC1(c2ccccc2)NC(=N)N(CCCCNC(=O)[C@@H](N)Cc2ccccc2)C1=O` (stereo partly drawn) [Example 16, N-{4-[2-imino-4-(2-methylpropyl)-5-oxo-4-phenylimidazolidin-1-yl]butyl}-L-phenylalaninamide], for which the IC50 is 19 nM.

In the case of `COC(=O)N[C@@H](Cc1ccc(F)cc1)C(=O)N[C@@H](C)CCCN1C(=N)N[C@](CC(C)C)(c2ccccc2)C1=O` [Example 27, 4-fluoro-N-{(1S)-4-[(4R)-2-imino-4-(2-methylpropyl)-5-oxo-4-phenylimidazolidin-1-yl]-1-methylbutyl}-N-alpha-(methoxycarbonyl)-L-phenylalaninamide], the 50% inhibitory concentration (IC50) turned out to be 27 nM.

For `COC(=O)N[C@@H](Cc1ccccc1)C(=O)N[C@H](CCCN1C(=N)N[C@](CC(C)C)(c2ccccc2)C1=O)C(C)C` [Example 45, N-[(1R)-4-[(4R)-2-imino-4-(2 methylpropyl)-5-oxo-4-phenylimidazolidin-1-yl]-1-(1 methylethyl)butyl]-N-alpha-(methoxycarbonyl)-L-phenylalaninamide], the concentration for half-maximal inhibition (IC50) amounted to 27 nM.

As for `CC[C@@H](CCCN1C(=N)N[C@](CC(C)C)(c2ccccc2)C1=O)NC(=O)[C@H](Cc1ccccc1Cl)NC(=O)OC` [Example 50, 2-chloro-N-{(1S)-1-ethyl-4-[(4R)-2-imino-4-(2-methylpropyl)-5-oxo-4-phenylimidazolidin-1-yl]butyl}-N-alpha-(methoxycarbonyl)-L-phenylalaninamide], the IC50 worked out at 6 nM.

As for `COC(=O)N[C@@H](Cc1ccc(OC)cc1)C(=O)N[C@@H](C)CCCN1C(=N)N[C@](CC(C)C)(c2ccccc2)C1=O` [Example 1, N-{(1S)-4-[(4R)-2-imino-4-(2-methylpropyl)-5-oxo-4-phenylimidazolidin-1-yl]-1-methylbutyl}-N-alpha-(methoxycarbonyl)-O-methyl-L-tyrosinamide], the half-inhibitory concentration (IC50) came to 18 nM.

For the compound `COC(=O)N[C@@H](Cc1ccccc1OC)C(=O)N[C@@H](C)CCCN1C(=N)N[C@](CC(C)C)(c2ccccc2)C1=O` [Example 39, N-{(1S)-4-[(4R)-2-imino-4-(2-methylpropyl)-5-oxo-4-phenylimidazolidin-1-yl]-1-methylbutyl}-2-methoxy-N-alpha-(methoxycarbonyl)-L-phenylalaninamide], the IC50 stood at 3 nM.

For `COC(=O)N[C@@H](Cc1ccncc1)C(=O)NCCCCN1C(=N)NC(CC(C)C)(c2ccccc2)C1=O` (stereo partly drawn) [Example 21, methyl [(1S)-2-({4-[2-imino-4-(2-methylpropyl)-5-oxo-4-phenylimidazolidin-1-yl]butyl}amino)-2-oxo-1-(pyridin-4-ylmethyl)ethyl]carbamate], the 50% inhibitory concentration (IC50) worked out at 46 nM.

`COC(=O)N[C@@H](Cc1cccc(Cl)c1)C(=O)N[C@H](CCCN1C(=N)N[C@](CC(C)C)(c2ccccc2)C1=O)C(C)C` [Example 43, 3-chloro-N-[(1R)-4-[(4R)-2-imino-4-(2-methylpropyl)-5-oxo-4-phenylimidazolidin-1-yl]-1-(1-methylethyl)butyl]-N-alpha-(methoxycarbonyl)-L-phenylalaninamide]: the IC50 stood at 5 nM.

With `COC(=O)N[C@@H](Cc1ccccc1)C(=O)NCCCCN1C(=N)NC(c2ccccc2)(c2ccccc2)C1=O` [Example 4, N-[4-(2-imino-5-oxo-4,4-diphenylimidazolidin-1-yl)butyl]-N-alpha-(methoxycarbonyl)-L-phenylalaninamide], the half-maximal inhibitory concentration (IC50) stood at 10 nM.

Regarding `COC(=O)N[C@@H](Cc1ccccc1)C(=O)NCCC[C@H](C1CC1)N1C(=N)N[C@](CC(C)C)(c2ccccc2)C1=O` [Example 51, N-{(4R)-4-cyclopropyl-4-[(4R)-2-imino-4-(2-methylpropyl)-5-oxo-4-phenylimidazolidin-1-yl]butyl}-N-alpha-(methoxycarbonyl)-L-phenylalaninamide], the IC50 was found to be 7 nM.

With `COC(=O)N[C@@H](Cc1ccccc1)C(=O)N[C@@H](C)CCCN1C(=N)NC(c2ccc(F)cc2)(c2ccc(F)cc2)C1=O` [Example 11, N-{(1S)-4-[4,4-bis(4-fluorophenyl)-2-imino-5-oxoimidazolidin-1-yl]-1-methylbutyl}-N-alpha-(methoxycarbonyl)-L-phenylalaninamide], the concentration for half-maximal inhibition (IC50) came out at 7 nM.

As for `COC(=O)N[C@@H](Cc1ccccc1)C(=O)NCCCCN1C(=N)NC(CC(C)C)(c2ccccc2)C1=O` (stereo partly drawn) [Example 17, N-{4-[2-imino-4-(2-methylpropyl)-5-oxo-4-phenylimidazolidin-1-yl]butyl}-N-alpha-(methoxycarbonyl)-L-phenylalaninamide], the IC50 amounted to 20 nM.
